Results as given in ChEMBL document CHEMBL5260823, “5-Ene-4-thiazolidinones - An efficient tool in medicinal chemistry” (Eur J Med Chem, 2017).

How the values were obtained:
[1] = Inhibition of beta-lactamase P99 (unknown origin) using cephalosporin nitrocefin as substrate preincubated for 10 mins followed by substrate addition by spectrophotometric analysis; parameters: species or system Bacteria
[2] = Inhibition of COX-2 in LPS stimulated mouse J774.A1 cells using arachidonic acid as substrate preincubated for 60 mins followed by substrate addition and measured after 30 mins by EIA analysis; format: cell-based
[3] = target: T1, Lethal factor (Bacillus anthracis, UniProt P15917); test: Inhibition of Bacillus anthracis anthrax lethal factor using MAPKKide as substrate incubated for 30 mins by fluorescence plate reader analysis
T1 sequence (P15917 whole entry): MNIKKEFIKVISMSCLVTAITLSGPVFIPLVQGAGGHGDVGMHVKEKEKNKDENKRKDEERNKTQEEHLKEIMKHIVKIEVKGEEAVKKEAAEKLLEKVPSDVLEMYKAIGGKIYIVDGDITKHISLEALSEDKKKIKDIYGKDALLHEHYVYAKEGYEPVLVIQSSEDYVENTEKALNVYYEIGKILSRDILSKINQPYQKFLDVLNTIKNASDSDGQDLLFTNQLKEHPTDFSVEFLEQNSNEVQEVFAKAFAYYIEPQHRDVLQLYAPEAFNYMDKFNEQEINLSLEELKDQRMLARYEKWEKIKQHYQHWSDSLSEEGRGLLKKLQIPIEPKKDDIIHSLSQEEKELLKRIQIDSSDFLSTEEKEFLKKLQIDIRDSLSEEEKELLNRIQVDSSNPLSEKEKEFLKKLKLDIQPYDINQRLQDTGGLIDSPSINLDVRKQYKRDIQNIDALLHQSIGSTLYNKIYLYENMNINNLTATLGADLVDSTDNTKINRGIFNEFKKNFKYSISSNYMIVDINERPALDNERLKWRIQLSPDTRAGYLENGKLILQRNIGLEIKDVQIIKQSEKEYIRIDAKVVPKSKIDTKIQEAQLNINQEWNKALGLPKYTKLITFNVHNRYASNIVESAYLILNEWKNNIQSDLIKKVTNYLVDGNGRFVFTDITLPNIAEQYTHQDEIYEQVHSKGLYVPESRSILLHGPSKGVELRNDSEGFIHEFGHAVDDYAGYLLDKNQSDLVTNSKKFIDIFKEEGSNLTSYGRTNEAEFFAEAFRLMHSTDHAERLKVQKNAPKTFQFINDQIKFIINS

[4] = system: Plasmodium falciparum; test: Antimalarial activity against chloroquine sensitive Plasmodium falciparum FCR-3 infected in mouse FM3A cells ssessed as reduction in parasite growth; format: functional, organism-based; conditions: FCR-3, FM3A
[5] = target: RNA-directed RNA polymerase (Hepacivirus hominis, UniProt O39930); test: Inhibition of Hepatitis C virus NS5B polymerase
Chain of RNA-directed RNA polymerase (O39930 whole entry): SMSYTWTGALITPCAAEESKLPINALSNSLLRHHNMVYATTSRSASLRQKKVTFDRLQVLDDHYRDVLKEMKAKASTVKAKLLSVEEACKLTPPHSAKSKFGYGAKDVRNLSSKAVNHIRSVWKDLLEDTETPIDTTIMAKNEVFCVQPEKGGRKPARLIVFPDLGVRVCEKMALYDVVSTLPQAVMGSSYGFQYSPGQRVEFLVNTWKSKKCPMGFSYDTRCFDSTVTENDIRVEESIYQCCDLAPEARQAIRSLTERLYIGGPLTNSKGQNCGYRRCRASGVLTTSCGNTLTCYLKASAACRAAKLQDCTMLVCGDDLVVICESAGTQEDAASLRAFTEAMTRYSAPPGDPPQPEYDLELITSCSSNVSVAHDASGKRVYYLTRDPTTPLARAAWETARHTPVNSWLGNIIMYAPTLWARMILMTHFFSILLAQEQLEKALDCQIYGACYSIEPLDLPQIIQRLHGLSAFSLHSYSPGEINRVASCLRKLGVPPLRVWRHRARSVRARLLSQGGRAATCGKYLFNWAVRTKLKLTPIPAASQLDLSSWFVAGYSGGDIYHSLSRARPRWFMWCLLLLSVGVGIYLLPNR

[6] = target: Dual specificity tyrosine-phosphorylation-regulated kinase 1A (Homo sapiens, UniProt Q13627); test: Inhibition of recombinant human GST-tagged DYRK1A expressed in Escherichia coli using Woodtide as substrate in presence of [gamma-33P] ATP incubated for 30 mins by scintillation counter analysis
[7] = system: Caco-2; test: Antiproliferative activity against human Caco-2 cells assessed as reduction in cell proliferation incubated for 4 days by crystal violet based assay; format: functional; conditions: Caco-2, 96 h
[8] = system: HeLa S3; test: Antiproliferative activity against human HeLa S3 cells assessed as reduction in cell proliferation incubated for 4 days by crystal violet based assay; format: functional; conditions: HeLa S3, 96 h
[9] = system: NCI-H460; test: Antiproliferative activity against human NCI-H460 cells assessed as reduction in cell proliferation incubated for 4 days by crystal violet based assay; format: functional; conditions: NCI-H460, 96 h
[10] = system: B16-F10; test: Antiproliferative activity against mouse B16-F10 cells assessed as reduction in cell proliferation incubated for 4 days by crystal violet based assay; format: functional; conditions: B16-F10, 96 h
[11] = target: Serine/threonine-protein kinase PLK1 (Homo sapiens, UniProt P53350); test: Inhibition of full-length His-tagged human PLK1 expressed in baculovirus using biotinylated casein as substrate in presence of [gamma-33P]-ATP by scintillation counter analysis
Chain of Serine/threonine-protein kinase PLK1 (P53350 whole entry): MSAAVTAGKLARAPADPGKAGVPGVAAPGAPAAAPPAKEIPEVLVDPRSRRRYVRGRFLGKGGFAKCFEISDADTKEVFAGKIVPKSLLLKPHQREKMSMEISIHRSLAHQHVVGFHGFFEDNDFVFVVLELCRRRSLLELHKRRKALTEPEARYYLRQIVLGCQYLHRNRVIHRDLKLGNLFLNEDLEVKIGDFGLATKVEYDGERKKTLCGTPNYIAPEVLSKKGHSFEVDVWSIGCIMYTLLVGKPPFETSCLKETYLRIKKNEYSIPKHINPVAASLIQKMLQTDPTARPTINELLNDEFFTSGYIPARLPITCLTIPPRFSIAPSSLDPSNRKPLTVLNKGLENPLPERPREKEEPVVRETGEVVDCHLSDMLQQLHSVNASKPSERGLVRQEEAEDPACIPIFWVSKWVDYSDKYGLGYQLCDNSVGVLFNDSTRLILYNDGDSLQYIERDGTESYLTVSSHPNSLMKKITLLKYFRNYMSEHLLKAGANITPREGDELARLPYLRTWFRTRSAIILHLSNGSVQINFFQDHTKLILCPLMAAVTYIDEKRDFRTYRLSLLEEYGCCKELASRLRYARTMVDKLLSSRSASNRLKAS

[12] = system: DU-145; test: Antiproliferative activity against human DU-145 cells assessed as reduction in cell proliferation incubated for 4 days by crystal violet based assay; format: functional; conditions: DU-145, 96 h
[13] = system: MCF7; test: Antiproliferative activity against human MCF7 cells assessed as reduction in cell proliferation incubated for 4 days by crystal violet based assay; format: functional; conditions: MCF7, 96 h
[14] = target: T2, Peroxisome proliferator-activated receptor alpha (Homo sapiens, UniProt Q07869); test: Agonist activity against PPAR-alpha (unknown origin)
T2 sequence (Q07869 whole entry): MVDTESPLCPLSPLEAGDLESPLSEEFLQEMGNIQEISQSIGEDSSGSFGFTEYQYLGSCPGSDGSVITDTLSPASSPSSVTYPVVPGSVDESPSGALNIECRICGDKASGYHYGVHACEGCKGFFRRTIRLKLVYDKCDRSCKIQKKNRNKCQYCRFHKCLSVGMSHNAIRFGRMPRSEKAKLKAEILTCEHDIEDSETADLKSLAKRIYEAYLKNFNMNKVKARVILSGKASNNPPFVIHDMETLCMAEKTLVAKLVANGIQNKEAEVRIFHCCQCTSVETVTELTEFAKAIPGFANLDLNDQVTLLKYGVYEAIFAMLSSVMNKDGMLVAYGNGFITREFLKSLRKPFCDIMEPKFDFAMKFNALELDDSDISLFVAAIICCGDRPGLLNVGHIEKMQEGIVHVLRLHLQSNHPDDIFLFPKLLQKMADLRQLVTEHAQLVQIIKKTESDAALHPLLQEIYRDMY

SMILES: O=C1NC(=S)S/C1=C1\C(=O)Nc2ccccc21
- IC50 [1]: 2600 µM

SMILES: CONC1=NC(=O)/C(=C/c2cc(C(C)(C)C)c(O)c(C(C)(C)C)c2)S1
- IC50 [2]: 0.17 µM

SMILES: O=C(O)CN1C(=O)/C(=C/c2ccco2)SC1=S
- IC50 [3]: 10 µM

SMILES: C=CCn1c(=O)/c(=C2\Sc3ccccc3N2C)s/c1=C\c1cccc[n+]1C
- EC50 [4]: 0.012 µM

SMILES: Cc1ccc(S(=O)(=O)NC2=NC(=O)/C(=C/c3ccc(C)o3)S2)cc1
- IC50 [5]: 2 µM

SMILES: COc1ccc(/C=C2\SC(NCCCN3CCN(CCCNC4=NC(=O)/C(=C/c5ccc(OC)cc5)S4)CC3)=NC2=O)cc1
- IC50 [6]: 0.04 µM

SMILES: CCc1ccc(/C=C2/SC(NC(C(=O)O)c3ccc(F)cc3)=NC2=O)o1 (stereo not given)
- IC50 [5]: 3 µM

SMILES: CCn1c(=O)/c(=C/Nc2cccc(CCN3CCCC3)c2)s/c1=C(\C#N)C(=O)NCC(F)(F)F
- IC50 [7]: 0.2 µM
- IC50 [8]: 0.2 µM
- IC50 [9]: 0.2 µM
- IC50 [10]: 0.2 µM
- IC50 [11]: 0.019 µM
- IC50 [12]: 0.2 µM
- IC50 [13]: 0.2 µM

SMILES: CN(C)c1ccc(/C=C/C=C2\S/C(=N\c3ccccc3)N(Cc3ccc(C(=O)O)cc3)C2=O)cc1
- EC50 [14]: 0.044 µM
